Measured values from paper PMC7253177, “Gain of channel function and modified gating properties in TRPM3 mutants causing intellectual disability and epilepsy” (eLife, 2020).
Substitutions are numbered along the chain they refer to.

What was measured:
[1] = target: T1, TRPM3 V990M mutant (Homo sapiens, UniProt Q9HCF6, V1015M); assay: Whole-cell patch clamp, HEK293T cells expressing V990M hTRPM3; type: cell-based; conditions: La3+ 10 µM, PS 40 µM, ±150 mV
T1 construct: expressed in transfected cells; host or cells: HEK293T
T1 sequence (Q9HCF6 1-1325 isoform Q9HCF6-10 V990M): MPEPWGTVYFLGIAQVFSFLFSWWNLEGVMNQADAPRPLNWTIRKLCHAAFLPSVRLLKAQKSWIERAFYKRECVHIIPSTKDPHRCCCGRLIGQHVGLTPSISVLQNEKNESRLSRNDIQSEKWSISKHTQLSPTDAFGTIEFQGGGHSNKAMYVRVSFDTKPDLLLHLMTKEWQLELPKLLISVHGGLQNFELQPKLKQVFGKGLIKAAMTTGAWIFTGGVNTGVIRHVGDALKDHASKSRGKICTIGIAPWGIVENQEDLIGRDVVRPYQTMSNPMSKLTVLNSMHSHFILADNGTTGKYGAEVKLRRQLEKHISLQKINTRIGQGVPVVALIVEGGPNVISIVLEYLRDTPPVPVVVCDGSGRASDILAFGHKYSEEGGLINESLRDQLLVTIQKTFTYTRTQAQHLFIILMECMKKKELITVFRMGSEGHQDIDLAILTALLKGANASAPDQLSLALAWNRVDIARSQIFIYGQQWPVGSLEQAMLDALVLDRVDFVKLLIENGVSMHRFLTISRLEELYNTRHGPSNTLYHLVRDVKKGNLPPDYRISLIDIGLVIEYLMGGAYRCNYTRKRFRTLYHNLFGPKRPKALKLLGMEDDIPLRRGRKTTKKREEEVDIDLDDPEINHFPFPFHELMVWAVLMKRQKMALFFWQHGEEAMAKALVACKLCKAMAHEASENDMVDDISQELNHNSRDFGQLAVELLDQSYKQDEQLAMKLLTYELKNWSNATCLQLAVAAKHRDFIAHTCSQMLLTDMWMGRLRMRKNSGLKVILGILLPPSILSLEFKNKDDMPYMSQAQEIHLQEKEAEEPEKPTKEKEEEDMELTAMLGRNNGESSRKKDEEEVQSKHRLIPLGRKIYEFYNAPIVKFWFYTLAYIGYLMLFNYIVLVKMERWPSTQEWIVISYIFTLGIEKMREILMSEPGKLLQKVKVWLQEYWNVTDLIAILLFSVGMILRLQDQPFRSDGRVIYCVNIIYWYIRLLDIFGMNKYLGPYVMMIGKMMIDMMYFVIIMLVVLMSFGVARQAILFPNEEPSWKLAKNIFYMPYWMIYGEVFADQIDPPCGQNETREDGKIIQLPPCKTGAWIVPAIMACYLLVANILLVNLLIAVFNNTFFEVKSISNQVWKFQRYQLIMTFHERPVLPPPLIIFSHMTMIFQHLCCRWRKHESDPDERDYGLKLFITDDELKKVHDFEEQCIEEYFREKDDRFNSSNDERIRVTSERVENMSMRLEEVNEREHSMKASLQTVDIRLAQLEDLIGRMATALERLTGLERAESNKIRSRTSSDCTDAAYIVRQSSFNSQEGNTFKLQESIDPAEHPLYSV
Method: (§1) HEK293T cells ([Graham et al., 1977]) were cultured as described previously ([Vriens et al., 2007]) and used up in passage number 14. HEK293T cells were tested for the lack of mycoplasma and transiently transfected with 2 µg of DNA using TransIT transfection reagent (Mirus) 36–48 hr before the measurements. In case of co-cultures a ratio of 1:1 between hTRPM3-YFP WT and mutants-YFP DNA was used.
All mutants were obtained by the standard PCR overlap extension method using hTRPM3 directly linked to YFP from pCAGGS/IRES-GFP vector ([Vriens et al., 2007]). Accuracy of all mutant sequences was verified by sequencing of the entire DNA constructs.
(§2) Standard whole-cell patch-clamp recordings were performed with an EPC-10 amplifier and the PatchMasterPro Software (HEKA Elektronik, Lambrecht, Germany). Current measurements were performed at a sampling rate of 20 kHz and currents were digitally filtered at 2.9 kHz. In all measurements, 70% of the series resistance was compensated. The standard internal solution contained (in mM): 100 CsAsp, 45 CsCl, 10 EGTA, 10 HEPES, 1 MgCl2 (pH 7.2 with CsOH) or 140 potassium gluconate, 5 EGTA, 1 MgCl2, 10 HEPES and 2 NaATP (pH 7.3 with CsOH) for the measurements of Gβγ mediated inhibition and the standard extracellular solution contained (in mM): 150 NaCl, 1 MgCl2, 10 HEPES (pH 7.4 with NaOH). The standard patch pipette resistance was between 2 MΩ and 4 MΩ when filled with pipette solution. In experiments allowing Ca^2+-dependent desensitization of TRPM3, Mg^2+ was replaced by Ca^2+ in the extracellular solution, and Cs^+ was replaced by Na^+ in the pipette solution. […] The chemical ligands were dissolved in bath solution from a stock diluted in DMSO.

[2] = target: T2, WT human TRPM3 (Homo sapiens, UniProt Q9HCF6); assay: Whole-cell patch clamp, HEK293T cells expressing WT hTRPM3; type: cell-based; conditions: cells not co-transfected with the µ-opioid receptor; DAMGO 1 µM, PS 40 µM
T2 construct: expressed in transfected cells; host or cells: HEK293T
T2 sequence (Q9HCF6 1-1325 isoform Q9HCF6-10): T1 sequence (Q9HCF6 1-1325 isoform Q9HCF6-10 V990M) with M990V
Method: as §1, §2

[3] = test system: WT hTRPM3 co-transfected with µ-opioid receptors; assay: Whole-cell patch clamp, Gβγ-mediated inhibition of PS-activated currents, cells co-transfected with µ-opioid receptor and WT TRPM3; type: cell-based, human
Method: (§3) TRPM3 activity is inhibited upon activation of G protein-coupled receptors, via a mechanism that involves direct binding of the Gβγ of trimeric G-proteins to the channel ([Badheka et al., 2017]; [Dembla et al., 2017]; [Quallo et al., 2017]).
as §1
(§4) Standard whole-cell patch-clamp recordings were performed with an EPC-10 amplifier and the PatchMasterPro Software (HEKA Elektronik, Lambrecht, Germany). Current measurements were performed at a sampling rate of 20 kHz and currents were digitally filtered at 2.9 kHz. In all measurements, 70% of the series resistance was compensated. The standard internal solution contained (in mM): 100 CsAsp, 45 CsCl, 10 EGTA, 10 HEPES, 1 MgCl2 (pH 7.2 with CsOH) or 140 potassium gluconate, 5 EGTA, 1 MgCl2, 10 HEPES and 2 NaATP (pH 7.3 with CsOH) for the measurements of Gβγ mediated inhibition and the standard extracellular solution contained (in mM): 150 NaCl, 1 MgCl2, 10 HEPES (pH 7.4 with NaOH). […]

[4] = test system: P1090Q hTRPM3 co-transfected with µ-opioid receptors; assay: Whole-cell patch clamp, Gβγ-mediated inhibition of PS-activated currents, cells co-transfected with µ-opioid receptor and P1090Q TRPM3; type: cell-based, human; conditions: 1 µM DAMGO, PS 40 µM
Method: as §3, §1, §4

[5] = test system: V990M hTRPM3 co-transfected with µ-opioid receptors; assay: Whole-cell patch clamp, Gβγ-mediated inhibition of PS-activated currents, cells co-transfected with µ-opioid receptor and V990M TRPM3; type: cell-based, human
Method: as §3, §1, §4

[6] = n = 5, read-out: IC50, DAMGO concentration for half-maximal inhibition of PS-activated currents

Compound | Block of the inward component of the PS-activated current [1] | Effect on TRPM3 currents [2] | Inhibition of PS-activated inward and outward currents ([3]; 1 µM DAMGO, PS 40 µM) | IC50 [3, 6] [nM] | Inhibition of PS-activated inward and outward currents [4] | Inhibition of PS-activated inward and outward currents ([5]; 1 µM DAMGO, PS 40 µM) | IC50 [5, 6] [nM]
[La+3] [La^3+, Lanthanum] | resistant to block |  |  |  |  |  | 
[D-Ala^2, N-Me-Phe^4, Gly^5-ol]-enkephalin acetate salt [DAMGO] |  | without effect | complete and rapidly reversible inhibition | 4 ± 0.6 | complete and rapidly reversible inhibition | only partly inhibited | 40 ± 10
